Laboratory results: patent US7196110B2, “N-substituted tricyclic 3-aminopyrazoles as inhibitors for the treatment of cell proliferative disorders” (Janssen Phamaceutica N.V., priority 2002, dated 2007)
pIC50: −log10 of the molar value. Like-named read-outs stand apart in the source and are kept apart here.

Molecular target: T1, PDGF-receptor beta enzyme comprising the tyrosine kinase domain (Homo sapiens, UniProt P09619)
T1 construct: from amino acid 545 to 1106 of GenBank Access NO: AAA36427
Experiment: Inhibition of PDGF-receptor kinase activity (cell-free, PLC1 peptide, 33P Flashplate)
Assay type: biochemical
Details: for inhibition at 10 µM: read-out: Percent Inhibition @ 10 uM; for pIC50: read-out: IC50
Outline: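 The IC50 is the inhibitor level halving kinase activity relative to inhibitor-free wells, measured as 33P captured on a streptavidin-bound biotin-PLC1 peptide. The reaction ran 60 min at 30 °C in pH 8 Tris buffer with 1 mM DTT, 5 μM ATP and the 545–1106 kinase-domain enzyme.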

[1] = PDGF-R kinase activity, compound at 10 uM

T1 sequence (P09619 545-1106): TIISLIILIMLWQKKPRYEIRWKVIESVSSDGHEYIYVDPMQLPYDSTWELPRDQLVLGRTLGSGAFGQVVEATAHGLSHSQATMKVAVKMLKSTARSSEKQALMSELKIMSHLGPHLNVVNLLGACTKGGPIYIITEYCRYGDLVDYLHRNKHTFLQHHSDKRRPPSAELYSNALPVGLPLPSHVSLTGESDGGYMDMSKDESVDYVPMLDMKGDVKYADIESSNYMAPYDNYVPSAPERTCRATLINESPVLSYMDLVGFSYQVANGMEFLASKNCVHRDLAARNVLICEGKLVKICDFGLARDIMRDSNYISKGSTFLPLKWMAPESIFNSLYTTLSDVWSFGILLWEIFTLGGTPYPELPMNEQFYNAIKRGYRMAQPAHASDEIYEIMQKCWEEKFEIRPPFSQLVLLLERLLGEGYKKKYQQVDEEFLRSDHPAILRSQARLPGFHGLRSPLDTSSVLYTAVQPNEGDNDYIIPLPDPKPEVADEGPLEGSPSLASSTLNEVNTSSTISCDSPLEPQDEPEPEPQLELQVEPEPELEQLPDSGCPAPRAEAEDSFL

| Compound | inhibition at 10 µM [1] [%] | pIC50 (PDGF-R kinase activity) | IC50 (IC50 (μM), PDGF-R kinase activity) [µM] | inhibition at 10 µM [%] |
| --- | --- | --- | --- | --- |
| CCOC(=O)CCC(=O)n1nc(Nc2cccc(F)c2)c2c1-c1cc(OC)c(OC)cc1C2 [Compound 429, 4-[3-(3-Fluoro-phenylamino)-6,7-dimethoxy-4H-indeno[1,2-c]pyrazol-1-yl]-4-oxo-butyric acid ethyl ester] | 72 | 6.17 | – | – |
| CCC(=O)n1nc(Nc2cccc(F)c2)c2c1-c1cc(OC)c(OC)cc1C2 [Compound 430, 1-[3-(3-Fluoro-phenylamino)-6,7-dimethoxy-4H-indeno[1,2-c]pyrazol-1-yl]-propan-1-one] | 61.5 | 6.24 | – | – |
| COc1cc2c(cc1OC)-c1c(c(Nc3cccc(F)c3)nn1C(=O)C(C)C)C2 [Compound 431, 1-[3-(3-Fluoro-phenylamino)-6,7-dimethoxy-4H-indeno[1,2-c]pyrazol-1-yl]-2-methyl-propan-1-one] | 84.5 | 6.35 | – | – |
| COC(=O)n1nc2c(c1Nc1cccc(F)c1)Cc1cc(OC)c(OC)cc1-2 [Compound 434, 3-(3-Fluoro-phenylamino)-6,7-dimethoxy-4H-indeno[1,2-c]pyrazole-2-carboxylic acid methyl ester] | 86 | 6.30 | – | – |
| CCOC(=O)n1nc2c(c1Nc1cccc(F)c1)Cc1cc(OC)c(OC)cc1-2 [Compound 435, 3-(3-Fluoro-phenylamino)-6,7-dimethoxy-4H-indeno[1,2-c]pyrazole-2-carboxylic acid ethyl ester] | 67 | 5.80 | – | – |
| COCCOC(=O)n1nc2c(c1Nc1cccc(F)c1)Cc1cc(OC)c(OC)cc1-2 [Compound 437, 3-(3-Fluoro-phenyl-amino)-6,7-dimethoxy-4H-indeno[1,2-c]pyrazole-2-carboxylic acid 2-methoxy-ethyl ester] | 83.5 | 6.54 | – | – |
| COCCOC(=O)n1nc(Nc2cccc(F)c2)c2c1-c1cc(OC)c(OC)cc1C2 [Compound 438, 3-(3-Fluoro-phenylamino)-6,7-dimethoxy-4H-indeno[1,2-c]pyrazole-1-carboxylic acid 2-methoxy-ethyl ester] | 77.5 | 6.00 | – | – |
| COC(=O)n1nc(Nc2cccc(F)c2)c2c1-c1cc(OC)c(OC)cc1C2 [Compound 439, 3-(3-Fluoro-phenylamino)-6,7-dimethoxy-4H-indeno[1,2-c]pyrazole-1-carboxylic acid methyl ester] | 69.5 | 6.21 | – | – |
| OCCCOc1cccc2c1Cc1c-2n[nH]c1Nc1cccc(Cl)c1 [Compound 440, 3-[3-(3-Chloro-phenylamino)-2,4-dihydro-indeno[1,2-c]pyrazol-5-yloxy]-propan-1-ol] | 89.5 | 7.34 | – | – |
| CCOc1cccc(Nc2[nH]nc3c2Cc2c(OCCCO)cccc2-3)c1 [Compound 441, 3-[3-(3-Ethoxy-phenylamino)-2,4-dihydro-indeno[1,2-c]pyrazol-5-yloxy]-propan-1-ol] | 96 | 6.69 | – | – |
| OCCCOc1cccc2c1Cc1c-2n[nH]c1Nc1cccc(F)c1 [Compound 442, 3-[3-(3-Fluoro-phenylamino)-2,4-dihydro-indeno[1,2-c]pyrazol-5-yloxy]-propan-1-ol] | 94.5 | 6.69 | – | – |
| OCCCOc1cccc2c1Cc1c-2n[nH]c1NCc1c(F)cccc1F [Compound 443, 3-[3-(2,6-Difluoro-benzylamino)-2,4-dihydro-indeno[1,2-c]pyrazol-5-yloxy]-propan-1-ol] | 89.5 | 7.01 | – | – |
| OCCCOc1cccc2c1Cc1c-2n[nH]c1NCc1ccccc1F [Compound 444, 3-[3-(2-Fluoro-benzylamino)-2,4-dihydro-indeno[1,2-c]pyrazol-5-yloxy]-propan-1-ol] | 79.5 | 6.29 | – | – |
| Cc1ccccc1CNc1[nH]nc2c1Cc1c(OCCCO)cccc1-2 [Compound 445, 3-[3-(2-Methyl-benzylamino)-2,4-dihydro-indeno[1,2-c]pyrazol-5-yloxy]-propan-1-ol] | 95 | 7.60 | – | – |
| CCOP(=O)(OCC)n1nc(Nc2cccc(F)c2)c2c1-c1cc(OC)c(OC)cc1C2 [Compound 446, [3-(3-Fluoro-phenylamino)-6,7-dimethoxy-4H-indeno[1,2-c]pyrazol-1-yl]-phosphonic acid diethyl ester] | – | – | 0.266 | 93.5 |
| COc1cc2c(cc1OC)-c1c(c(Nc3cccc(F)c3)nn1S(=O)(=O)N(C)C)C2 [Compound 447, 3-(3-Fluoro-phenylamino)-6,7-dimethoxy-4H-indeno[1,2-c]pyrazole-1-sulfonic acid dimethylamide] | 7 | – | – | – |
| COc1cc2c(cc1OCC(O)CO)Cc1c-2n[nH]c1NCc1c(Cl)cccc1Cl (stereo not shown) [Compound 450, 3-[3-(2,6-Dichloro-benzylamino)-7-methoxy-2,4-dihydro-indeno[1,2-c]pyrazol-6-yloxy]-propane-1,2-diol] | 100 | 9.03 | – | – |

| Compound | inhibition at 10 µM [1] [%] | pIC50 (PDGF-R kinase activity) | IC50 (IC50 (μM), PDGF-R kinase activity) [µM] | inhibition at 10 µM [%] |
| --- | --- | --- | --- | --- |
| COc1cc2c(cc1OCC(O)CO)Cc1c-2n[nH]c1NCc1ccccc1Cl (stereo not shown) [Compound 451, 3-[3-(2-Chloro-benzylamino)-7-methoxy-2,4-dihydro-indeno[1,2-c]pyrazol-6-yloxy]-propane-1,2-diol] | 99.5 | 8.70 | – | – |
| COc1ccncc1Nc1[nH]nc2c1Cc1cc(OC)c(OC)cc1-2 [Compound 453, (6,7-Dimethoxy-2,4-dihydro-indeno[1,2-c]pyrazol-3-yl)-(4-methoxy-pyridin-3-yl)-amine] | 88 | 6.08 | – | – |
| COc1cc2c(cc1OC)-c1n[nH]c(Nc3c(OC)ccnc3OC)c1C2 [Compound 454, (6,7-Dimethoxy-2,4-dihydro-indeno[1,2-c]pyrazol-3-yl)-(2,4-dimethoxy-pyridin-3-yl)-amine] | 99 | 6.59 | – | – |
| COc1cc2c(cc1OC)-c1n[nH]c(NCc3cc(-c4ccccc4)on3)c1C2 [Compound 455, (6,7-Dimethoxy-2,4-dihydro-indeno[1,2-c]pyrazol-3-yl)-(5-phenyl-isoxazol-3-ylmethyl)-amine] | 95 | 6.81 | – | – |
| COc1ccc(C(=O)n2nc(Nc3cccc(F)c3)c3c2-c2cc(OC)c(OC)cc2C3)cc1 [Compound 458, [3-(3-Fluoro-phenylamino)-6,7-dimethoxy-4H-indeno[1,2-c]pyrazol-1-yl]-(4-methoxy-phenyl)-methanone] | 70.5 | 5.16 | – | – |
| CCOc1cc2c(cc1OCC(O)CN1CCCC1)-c1n[nH]c(Nc3cccc(OC)c3)c1C2 (stereo not shown) [Compound 462, 1-[6-Ethoxy-3-(3-methoxy-phenylamino)-2,4-dihydro-indeno[1,2-c]pyrazol-7-yloxy]-3-pyrrolidin-1-yl-propan-2-ol] | 99 | 8.67 | – | – |
| COC(=O)CCCC(=O)n1nc(Nc2cccc(F)c2)c2c1-c1cc(OC)c(OC)cc1C2 [Compound 464, 5-[3-(3-Fluoro-phenylamino)-6,7-dimethoxy-4H-indeno[1,2-c]pyrazol-1-yl]-5-oxo-pentanoic acid methyl ester] | 92 | 6.61 | – | – |
| COc1cc2c(cc1OC)-c1c(c(Nc3cccc(F)c3)nn1C(=O)OCCOCc1ccccc1)C2 [Compound 470, 3-(3-Fluoro-phenylamino)-6,7-dimethoxy-4H-indeno[1,2-c]pyrazole-1-carboxylic acid 2-benzyloxy-ethyl ester] | 96 | 6.71 | – | – |
| COCn1nc(Nc2cccc(F)c2)c2c1-c1cc(OC)c(OC)cc1C2 [Compound 472, (6,7-Dimethoxy-1-methoxymethyl-1,4-dihydro-indeno[1,2-c]pyrazol-3-yl)-(3-fluoro-phenyl)-amine] | 35 | – | – | – |
| COCC(=O)OCC(=O)n1nc(Nc2cccc(F)c2)c2c1-c1cc(OC)c(OC)cc1C2 [Compound 473, Methoxy-acetic acid 2-[3-(3-fluoro-phenylamino)-6,7-dimethoxy-4H-indeno[1,2-c]pyrazol-1-yl]-2-oxo-ethyl ester] | 98.5 | 8.05 | – | – |
| COc1cc2c(cc1OC)-c1c(c(Nc3cccc(F)c3)nn1C(=O)COC(=O)C(C)C)C2 [Compound 474, Isobutyric acid 2-[3-(3-fluoro-phenylamino)-6,7-dimethoxy-4H-indeno[1,2-c]pyrazol-1-yl]-2-oxo-ethyl ester] | 91.5 | 7.20 | – | – |
| COCn1nc2c(c1Nc1cccc(F)c1)Cc1cc(OC)c(OC)cc1-2 [Compound 475, (6,7-Dimethoxy-2-methoxymethyl-2,4-dihydro-indeno[1,2-c]pyrazol-3-yl)-(3-fluoro-phenyl)-amine] | 65.5 | 5.30 | – | – |
| COc1cc2c(cc1OC)-c1n[nH]c(Nc3c(F)cccc3F)c1C2 [Compound 476, (2,6-Difluoro-phenyl)-(6,7-dimethoxy-2,4-dihydro-indeno[1,2-c]pyrazol-3-yl)-amine] | 88.5 | 6.60 | – | – |
| COc1cc2c(cc1OC)-c1n[nH]c(Nc3c(F)cc(F)cc3F)c1C2 [Compound 477, (6,7-Dimethoxy-2,4-dihydro-indeno[1,2-c]pyrazol-3-yl)-(2,4,6-trifluoro-phenyl)-amine] | 95 | 6.64 | – | – |
| Brc1cccc(Nc2[nH]nc3c2Cc2c(OCCN4CCCC4)cccc2-3)c1 [Compound 478, (3-Bromo-phenyl)-[5-(2-pyrrolidin-1-yl-ethoxy)-2,4-dihydro-indeno[1,2-c]pyrazol-3-yl]-amine] | 93.5 | 6.79 | – | – |
| OCC(O)COc1cccc2c1Cc1c-2n[nH]c1NCc1c(Cl)cccc1Cl (stereo not shown) [Compound 479, 3-[3-(2,6-Dichloro-benzylamino)-2,4-dihydro-indeno[1,2-c]pyrazol-5-yloxy]-propane-1,2-diol] | 94.5 | 6.20 | – | – |
